According to publication PMC7278020, “Triterpenic Acids as Non-Competitive α-Glucosidase Inhibitors from Boswellia elongata with Structure-Activity Relationship: In Vitro and In Silico Studies” (Biomolecules, 2020):
Like-named read-outs stand apart in the source and are kept apart here.

Columns and labels:
[1] = molecular target: T1, α-Glucosidase enzyme (E.C. 3.2.1.20) (Saccharomyces cerevisiae, UniProt P53341); conditions: the previous investigation; acetyl group at C-3 position; cited from earlier work
T1 construct: purchased Sigma-Aldrich G0660-750UN

[2] = molecular target: T1, α-Glucosidase enzyme (E.C. 3.2.1.20); assay: biochemical
Description: (§1) α-Glucosidase enzyme (E.C. 3.2.1.20) from Saccharomyces cerevisiae were purchased from Sigma-Aldrich (Darmstadt, Hesse, Germany) with product number of G0660-750UN and their inhibition assay was carried out by using 0.1 M phosphate buffer (pH 6.8) solution at 37 °C. […] For the kinetics studies, different concentrations (0.1, 0.2, 0.4 and 0.8 mM) of p-nitrophenyl-α-D-glucopyranoside (substrate) were used. In control the tested compounds were replaced with DMSO-d6 (7.5% final). […] Three time the experiment was repeated having triplicate of each samples. The % inhibition was calculated by using the following formula:% Inhibition = 100 − (OD test well/OD control) ×100 (OD = Optical density)

α-glucosidase enzyme [3] = molecular target: T2, α-glucosidase enzyme (Saccharomyces cerevisiae, UniProt P53341); set-up: method as in PMID 29030193; conditions: cited from earlier work
T2 construct: purchased Sigma-Aldrich G0660-750UN

α-glucosidase enzyme [4] = molecular target: T2, α-glucosidase enzyme; assay: Kinetics studies on α-glucosidase (Lineweaver–Burk, secondary replot, Dixon plot); type: biochemical; conditions: for Type of Inhibition: Lineweaver–Burk plots
Description: as §1
The type of inhibition was determined by Lineweaver–Burk plots, the reciprocal of the rate of the reaction was plotted against the reciprocal of substrate concentrations to monitor the effect of inhibitor on both Km and Vmax. […] In non-competitive inhibition, the Vmax of enzyme decreased, while Km are not affected. […] The secondary replots of Lineweaver–Burk plots were used to determine the Ki values.

[5] = pH 6.8, 37 °C, substrate p-nitrophenyl-α-D-glucopyranoside 0.7 mM, NA = Not active, read-out: IC50 = µM ± SEM
[6] = substrate 0.1, 0.2, 0.4 and 0.8 mM, read-out: Ki = µM ± SEM

T1 sequence (P53341 whole entry): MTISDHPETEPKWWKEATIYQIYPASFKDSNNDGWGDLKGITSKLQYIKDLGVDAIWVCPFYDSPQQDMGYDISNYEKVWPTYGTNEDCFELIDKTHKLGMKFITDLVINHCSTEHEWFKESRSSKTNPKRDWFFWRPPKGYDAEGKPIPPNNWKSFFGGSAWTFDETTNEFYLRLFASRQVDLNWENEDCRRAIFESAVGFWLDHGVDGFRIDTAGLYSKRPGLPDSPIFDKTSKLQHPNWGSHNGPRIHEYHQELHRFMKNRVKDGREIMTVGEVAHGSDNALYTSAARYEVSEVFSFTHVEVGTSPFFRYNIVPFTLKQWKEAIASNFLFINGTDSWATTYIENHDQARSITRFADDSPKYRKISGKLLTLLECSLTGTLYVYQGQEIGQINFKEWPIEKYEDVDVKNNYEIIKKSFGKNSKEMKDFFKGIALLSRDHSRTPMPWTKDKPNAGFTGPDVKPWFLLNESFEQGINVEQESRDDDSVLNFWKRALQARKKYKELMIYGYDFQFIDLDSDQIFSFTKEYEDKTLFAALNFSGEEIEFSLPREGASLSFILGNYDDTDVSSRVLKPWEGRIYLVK
T2 sequence (P53341 whole entry): as above

## CC(=O)O[C@@H]1CC[C@@]2(C)[C@@H](CC[C@]3(C)[C@@H]2CC=C2[C@@H]4[C@@H](C)[C@H](C)CC[C@]4(C)CC[C@]23C)[C@@]1(C)C(=O)O [Compound 6, 3-Acetyl-β-boswellic acid]
[1]
  glucosidase inhibition (in words): most promising glucosidase inhibitors

## C/C1=C\CC/C(C)=C/C[C@H](C(C)(C)O)CC/C(C)=C/CC1 [Compound 20, Iso-serratol]
[2]
  inhibition at 1000 µM: < 50%

## CC(=O)O[C@@H]1CC[C@@]2(C)[C@@H](CC[C@]3(C)[C@@H]2CC=C2[C@@H]4CC(C)(C)CC[C@]4(C)CC[C@]23C)[C@@]1(C)C(=O)O [Compound 12, 3-Acetyl-α-boswellic acid]
[1]
  glucosidase inhibition (in words): most promising glucosidase inhibitors

## C[C@H]1[C@H](C)CC[C@]2(C(=O)O)CC[C@]3(C)C(=CC[C@@H]4[C@@]5(C)CC[C@H](O)C(C)(C)[C@@H]5CC[C@]43C)[C@H]12 [ursolic acid]
α-glucosidase enzyme [3]
  Type of inhibition of α-glucosidase (literature): non-competitive inhibitors

## CC(C)=CCC[C@H](C)C1CC[C@]2(C)C3=C(CC[C@@]12C)[C@@]1(C)CC[C@@H](O)C(C)(C)C1CC3 (stereo partly drawn) [Compound 2, 5α-Tirucalla-8,24-dien-3α-ol]
[2]
  inhibition at 1000 µM: < 50%

## C[C@@H]1CC[C@]2(C)CC[C@]3(C)C(=CC=C4[C@@]5(C)CC[C@@H](O)[C@](C)(C(=O)O)C5CC[C@]43C)C2[C@H]1C (stereo partly drawn) [Compound 5, 9,11-Dehydro-β-boswellic acid]
[2]; [5]
  IC50: 20.9 ± 0.05 µM
α-glucosidase enzyme [4]
  Type of Inhibition: Non-competitive
α-glucosidase enzyme [4]; [6]
  Ki: 15.3 ± 0.54 µM

## CC(=O)O[C@@H]1CC[C@]2(C)C3=CC=C4C5[C@@H](C)[C@H](C)CC[C@]5(C)CC[C@@]4(C)[C@]3(C)CCC2[C@@]1(C)C(=O)O (stereo partly drawn) [Compound 4, 3-O-Acetyl-9,11-dehydro-β-boswellic acid]
[2]
  IC50: 9.9 ± 0.48 µM
[2]; from IC50 values
  times more active than the standard inhibitor acarbose: 94 times
α-glucosidase enzyme [4]
  Ki: 7.05 ± 0.75 µM
  Type of Inhibition: Non-competitive

## CC(=O)OC1CCC2(C)C3=C(CCC2C1(C)C)C1(C)CCC(C(C)CCC=C(C)C)C1(C)CC3 (stereo not drawn) [Compound 1, 5α-tirucalla-8,24-dien-3α-acetate]
[2]
  inhibition at 1000 µM: < 50%
[2]; pH 6.8, 37 °C, substrate p-nitrophenyl-α-D-glucopyranoside 0.7 mM, NA = Not active
  IC50 = µM ± SEM: inactive

## CC1(C)CC[C@]2(C(=O)O)CC[C@]3(C)C(=CC[C@@H]4[C@@]5(C)CC[C@H](O)C(C)(C)[C@@H]5CC[C@]43C)[C@@H]2C1 [oleanolic acid]
α-glucosidase enzyme [3]
  Type of inhibition of α-glucosidase (literature): non-competitive inhibitors

## CC(=O)O[C@@H]1CC[C@]2(C)C3=C(CCC2C1(C)C)[C@@]1(C)CCC([C@H](CCC=C(C)C)C(=O)O)[C@]1(C)CC3 (stereo partly drawn) [Compound 3, 3α-Acetoxytirucall-8,24-dien-21-oic acid]
[2]; [5]
  IC50: 56.8 ± 1.3 µM
α-glucosidase enzyme [4]
  Type of Inhibition: Non-competitive
α-glucosidase enzyme [4]; [6]
  Ki: 51.1 ± 0.63 µM

## C[C@@H]1CC[C@H]2[C@@H]1C1C(CC[C@]2(C)O)C1(C)C (some centres unmarked) [Compound 19, Viridiflorol]
[2]
  inhibition at 1000 µM: < 50%

## CC(=O)O[C@@H]1CC[C@@]2(C)[C@@H](CC[C@]3(C)[C@@H]2C(=O)C=C2[C@@H]4[C@@H](C)[C@H](C)CC[C@]4(C)CC[C@]23C)[C@@]1(C)C(=O)O [Compound 7, 3-Acetyl 11-keto-β-boswellic acid]
[1]
  glucosidase inhibition (in words): most promising glucosidase inhibitors

## CO[C@@H]1C=C2C3[C@@H](C)[C@H](C)CC[C@]3(C)CC[C@@]2(C)[C@]2(C)CCC3[C@](C)(CC[C@@H](O)[C@]3(C)C(=O)O)C12 (stereo partly drawn) [Compound 11, 11α-methoxy-β-boswellic acid]
[2]
  IC50: 14.9 ± 1.31 µM
α-glucosidase enzyme [4]
  Ki: 8.05 ± 0.38 µM
  Type of Inhibition: Non-competitive
